Data: patent US9068970B2, “Efficient and effective supplement screening for the development of chemically defined media in cell culture” (Abbvie Inc., priority 2010, dated 2015)
Like-named read-outs stand apart in the source and are kept apart here. Where a SMILES comes first, the peptide text is derived from it.

Key:
Type in all cases: cell-based
[1] = test system: recombinant IgG producing Chinese Hamster Ovary cell line (CHO cell line #1); test: 24-well plate media supplement screening: harvest titer (HPLC, Poros A affinity column)
Description: (§1) 24-well plates were utilized at a working volume of 1.5 mL per well to serve as the platform for media supplement screening. An in-house, base chemically defined media (CDM #1) was used as the basal media for the purposes of the experiments. A recombinant IgG producing Chinese Hamster Ovary cell line (CHO cell line #1) was used for the media supplement screening phase of the experiments.
All 24-well plate screening experiments were designed using JMP7 commercially available statistics software (Cary, N.C.) using custom experimental options. Six individual media supplement screening experiments were performed to test over a hundred different supplements in statistically designed experiments and in a serial fashion. […] Supplement solutions were manually pipetted into the respective plate wells using concentrated, sterile stock solutions. The comprehensive list of media supplements evaluated for cell culture process improvement is shown below in Table 2:
(§2) Two cell culture performance indicators were measured in the high-throughput screening experiments: peak viable cell density and harvest titer. Time point samples were withdrawn from each of the respective plate wells on Days 6, 7, and 8 post inoculation and measured for their respective viable cell densities spectrophotometrically via the CellTiter 96 AQueous Solution Cell Proliferation Assay Kits™ (Promega, Madison, Wis.). Harvest Titer measurements were conducted via high performance liquid chromatography (HPLC) with a Poros A™ affinity column (Applied Biosystems, Foster City, Calif.). All experimental wells supplemented with a particular combination of media compounds were compared to an unsupplemented control, with the results expressed as relative values relative to the control.
(§3) Two cell culture performance indicators were measured in the high-throughput screening experiments as well as media verification experiments; peak viable cell density (VCD) and harvest titer. […] A few days after the last cell count measurement sample the plates were centrifuged and the supernatant was collected and stored at −80° C. for future analysis. Harvest titer measurements were conducted via high performance liquid chromatography (HPLC) with a Poros A™ affinity column (Applied Biosystems, Foster City, Calif.). All experimental wells supplemented with a particular combination of media compounds were compared to an unsupplemented control, with the results expressed as values relative to the control. For the media verification experiments in larger-scale shaker and spinner flasks, viable cell density and viability were measured via Cedex automated cell counters (Roche Applied Science, Indianapolis, Ind.). Harvest titer measurements were similarly measured via HPLC.
(§4) Standard Analysis of Variance (ANOVA) was used to measure the significance of individual supplements and their respective interactions towards the resulting cell culture technique performance. Individual analyses were conducted on both peak viable cell density and harvest titer for each of the respective screening experiments. Three different levels of each media supplement were used in these experiments: unsupplemented (Level 1), lightly supplemented (Level 2), and heavily supplemented (Level 3). […] The optimization subroutine intrinsic to the statistics software was used to analyze the screening dataset determine the identity of a high performance media blend. It is important to note that the selection method is a mathematical exercise which can lead to multiple blends identified as having the highest performance parameters, and the results are highly dependent on the initial first guess.
The aforementioned supplements were evaluated for improvements in cell culture technique performance.

[2] = test system: recombinant IgG producing Chinese Hamster Ovary cell line (CHO cell line #1); test: 24-well plate media supplement screening: peak viable cell density (CellTiter 96 AQueous)
Description: as §1
All 24-well plate screening experiments were designed using JMP7 commercially available statistics software (Cary, N.C.) using custom experimental options. Six individual media supplement screening experiments were performed to test over a hundred different supplements in statistically designed experiments and in a serial fashion. All screening experiments were performed at […] cultured at 210 rpm on a shaker table in a 5% humidified CO2 incubator. Gas permeable, rayon film plate covers (VWR International, Radnor, Pa., Catalog #60941-086) were employed as necessary to provide a sterile barrier between the well plates, the plastic plate cover, and the culture atmosphere. Supplement solutions were manually pipetted into the respective plate wells using concentrated, sterile stock solutions. The comprehensive list of media supplements evaluated for cell culture process improvement is shown below in Table 2:
as §2, §3, §4

[3] = test system: recombinant IgG producing Chinese Hamster Ovary cell line (CHO cell line #1); test: Supplement screening: process performance (peak VCD and/or harvest titer) by inspectional/statistical analysis
Description: as §4, with “guess. Three particular high performance blends were identified for further evaluation: […] The supplements whose relative concentrations supported a distinct pattern of either increasing or decreasing process performance were categorized into the clustered classification. […] These supplements were either compounds or groups of similar compounds such as polyamines, essential amino acids, and vitamins.” for “guess.”

[4] = test system: recombinant IgG producing Chinese Hamster Ovary cell line (CHO cell line #1); test: JMP7 statistical identification of high performance media supplementation from a 15-supplement screening experiment; conditions: for Concentration Range for Increase of Harvest Titer / Concentration Range for Increase of Peak VCD and Harvest Titer: range given, variability in culture volumes
Description: as §4
Fifteen of these supplements, or groups of supplements, were screened in a separate statistically designed experiment for the final determination of high performance media blends for the maximization of peak VCD, harvest titer, and both of these variables simultaneously.
The JMP7 statistical software program was further used to identify the high performance media supplementation for maximizing peak VCD, harvest titer, and both simultaneously.

[5] = HTS experiments, CDM #1, relative to unsupplemented control
[6] = univariate analysis of varying supplement concentrations
[7] = predicted amount for addition into the unsupplemented control media

Q: Which “Effect on Harvest Titer” value [1, 5] does the source give for `O=C(O)CCCC[C@@H]1SC[C@@H]2NC(=O)N[C@@H]21` [Biotin] here?
A: No change

Q: What about the “Effect on Peak VCD” value [2, 5] of the same molecule?
A: No change

Q: With `Nc1ccc(C(=O)O)cc1` [PABA, Para-amino benzoic acid] as the molecule, how does the “Effect on Harvest Titer” value [1, 5] read?
A: No change

Q: What about the “Effect on Peak VCD” value [2, 5] of the same molecule?
A: Decrease

Q: With `CC(=O)C(=O)[O-].[Na+]` [Sodium pyruvate] as the molecule, how does the “Effect on Harvest Titer” value [1, 5] read?
A: No change

Q: And the “Effect on Peak VCD” value [2, 5]?
A: Decrease

Q: With `O=C([O-])CC(O)(CC(=O)[O-])C(=O)[O-].[Na+].[Na+].[Na+]` [Sodium citrate] as the molecule, how does the “Effect on Harvest Titer” value [1, 5] read?
A: No change

Q: What about the “Effect on Peak VCD” value [2, 5] of the same molecule?
A: No change

Q: What does the source list for `C[C@]12CCC(=O)C=C1CC[C@@H]1[C@@H]2[C@@H](O)C[C@@]2(C)[C@H]1CC[C@]2(O)C(=O)CO` [Hydrocortisone, reference compound]?
A: Effect on Harvest Titer [1, 5]: Increase; Effect on Peak VCD [2, 5]: No change

Q: Which “Effect on Harvest Titer” value [1, 5] does the source give for `Cc1cc2nc3c(=O)[nH]c(=O)nc-3n(C[C@H](O)[C@H](O)[C@H](O)CO)c2cc1C` [Riboflavin] here?
A: No change

Q: What about the “Effect on Peak VCD” value [2, 5] of the same molecule?
A: Decrease

Q: For `OC[C@H]1O[C@H](O[C@H]2[C@H](O)[C@@H](O)C(O)O[C@@H]2CO)[C@H](O)[C@@H](O)[C@@H]1O` (mixture of isomers) [Maltose], which “Effect on Harvest Titer” value [1, 5] is on record?
A: Increase

Q: And the “Effect on Peak VCD” value [2, 5]?
A: No change

Q: And the “Process Performance Pattern” value [3, 6]?
A: Wide dispersal

Q: Which results are given for `CCCCC/C=C\C/C=C\C/C=C\C/C=C\CCCC(=O)O` [Arachidonic acid]?
A: Effect on Harvest Titer [1, 5]: Decrease; Effect on Peak VCD [2, 5]: Decrease

Q: Which “Concentration Range for Increase of Harvest Titer” value [4] does the source give for `NCCCCNCCCN` [Spermidine, free base, Spermidine] here?
A: (4.22 × 10^−5-5.42 × 10^−5) g/L

Q: And the “Concentration Range for Increase of Peak VCD and Harvest Titer” value [4]?
A: (4.22 × 10^−5-5.42 × 10^−5) g/L

Q: How did the “Effect on Harvest Titer” value [1, 5] turn out when `NC(=O)c1cccnc1` [Nicotinamide] was run?
A: No change

Q: What about the “Effect on Peak VCD” value [2, 5] of the same molecule?
A: Decrease

Q: With `NCCS(=O)(=O)O` [Taurine] as the molecule, how does the “Effect on Harvest Titer” value [1, 5] read?
A: Decrease

Q: And the “Effect on Peak VCD” value [2, 5]?
A: Decrease

Q: Which “Effect on Harvest Titer” value [1, 5] does the source give for `CC(=O)N[C@H]1C(O)O[C@H](CO)[C@@H](O)[C@@H]1O` (stereo partly shown) [GlcNAc, N-acetylglucosamine] here?
A: No change

Q: What about the “Effect on Peak VCD” value [2, 5] of the same molecule?
A: Decrease

Q: With `Cl.N[C@@H](Cc1cnc[nH]1)C(=O)O.O` [L-histidine*HCl*H2O] as the molecule, how does the “Concentration Target (Range) for Increase of Harvest Titer” value [4, 7] read?
A: +0.25 (0.22-0.28) g/L

Q: What about the “Concentration Target (Range) for Increase of Peak VCD” value [4, 7] of the same molecule?
A: +0.21 (0.18-0.23) g/L

Q: What about the “Concentration Target (Range) for Increase of Peak VCD and Harvest Titer” value [4, 7] of the same molecule?
A: +0.25 (0.22-0.28) g/L

Q: What does the source list for `N[C@@H](CSSC[C@H](N)C(=O)O)C(=O)O` [Cystine, L-cystine]?
A: Effect on Harvest Titer [1, 5]: Decrease; Effect on Peak VCD [2, 5]: Decrease

Q: Which results are given for Concanavalin A?
A: Effect on Harvest Titer [1, 5]: Decrease; Effect on Peak VCD [2, 5]: Decrease

Q: With `C[N+](C)(C)CCO.[Cl-]` [Choline chloride] as the molecule, how does the “Effect on Harvest Titer” value [1] read?
A: No change

Q: What about the “Effect on Peak VCD” value [2] of the same molecule?
A: No change

Q: What about the “Process Performance Pattern” value [3] of the same molecule?
A: Wide dispersal

Q: For `NCCCCN` [Putrescine], which “Concentration Range for Increase of Harvest Titer” value [4] is on record?
A: ( 1.06 × 10^−4-1.36 × 10^−4) g/L

Q: And the “Concentration Range for Increase of Peak VCD and Harvest Titer” value [4]?
A: (1.06 × 10^−4-1.36 × 10^−4) g/L

Q: And the “Effect on Harvest Titer” value [1, 5]?
A: No change

Q: And the “Effect on Peak VCD” value [2, 5]?
A: Decrease

Q: Which results are given for Cyanocobalamin [Vitamin B-12]?
A: Effect on Harvest Titer [1, 5]: Decrease; Effect on Peak VCD [2, 5]: No change

Q: How did the “Concentration Range for Increase of Harvest Titer” value [4] turn out when `NCCCNCCCCNCCCN` [Spermine, free base, Spermine] was run?
A: (8.11 × 10^−5-1.04 × 10^−4) g/L

Q: What about the “Concentration Range for Increase of Peak VCD and Harvest Titer” value [4] of the same molecule?
A: (8.11 × 10^−5-1.04 × 10^−4) g/L

Q: How did the “Effect on Harvest Titer” value [1, 5] turn out when `N[C@@H](CCC(=O)N[C@@H](CS)C(=O)NCC(=O)O)C(=O)O` [Glutathione, Glutathione, reduced] was run?
A: Decrease

Q: And the “Effect on Peak VCD” value [2, 5]?
A: Decrease

Q: For `Nc1nc(=O)c2nc(CNc3ccc(C(=O)N[C@@H](CCC(=O)O)C(=O)O)cc3)cnc2[nH]1` [Folate], which “Process Performance Pattern” value [3, 6] is on record?
A: Wide dispersal

Q: Which results are given for `O=C(CO)[C@@H](O)[C@H](O)[C@H](O)CO` [Fructose]?
A: Effect on Harvest Titer [1, 5]: No change; Effect on Peak VCD [2, 5]: No change

Q: Which “Effect on Harvest Titer” value [1, 5] does the source give for `CCCCC/C=C\C/C=C\CCCCCCCC(=O)O` [Linoleic acid] here?
A: Increase

Q: And the “Effect on Peak VCD” value [2, 5]?
A: No change

Q: Which “Effect on Harvest Titer” value [1, 5] does the source give for `Cc1ncc(CO)c(CO)c1O.Cl` [Vitamin B-6, Pyridoxine hydrochloride] here?
A: Increase

Q: What about the “Effect on Peak VCD” value [2, 5] of the same molecule?
A: No change

Q: How did the “Effect on Harvest Titer” value [1, 5] turn out when `O=C(O)CN(CCN(CC(=O)O)CC(=O)O)CC(=O)O` [EDTA] was run?
A: Decrease

Q: And the “Effect on Peak VCD” value [2, 5]?
A: Increase

Q: Which results are given for `CNCC(=O)O` [Sarcosine]?
A: Effect on Harvest Titer [1, 5]: Decrease; Effect on Peak VCD [2, 5]: No change

Q: Which “Effect on Harvest Titer” value [1, 5] does the source give for `O=C[C@H](O)[C@@H](O)[C@H](O)CO` [Xylose] here?
A: Increase

Q: What about the “Effect on Peak VCD” value [2, 5] of the same molecule?
A: No change

Q: What about the “Process Performance Pattern” value [3, 6] of the same molecule?
A: Wide dispersal

Q: Which “Effect on Harvest Titer” value [1, 5] does the source give for `C[C@H](N)C(=O)N[C@@H](CCC(N)=O)C(=O)O` [L-alanyl-L-glutamine] (H-Ala-Gln-OH) here?
A: No change

Q: And the “Effect on Peak VCD” value [2, 5]?
A: Increase

Q: `O=c1[nH]cnc2nc[nH]c12` [Hypoxanthine] was tested. Which “Concentration Range for Increase of Harvest Titer” value [4] did it give?
A: (6.76 × 10^−4-8.68 × 10^−4) g/L

Q: What about the “Concentration Range for Increase of Peak VCD and Harvest Titer” value [4] of the same molecule?
A: (6.76 × 10^−4-8.68 × 10^−4) g/L

Q: `CC(=O)N[C@H]1C(O)O[C@H](CO)[C@H](O)[C@@H]1O` (stereo partly shown) [GalNAc, N-acetylgalactosamine] was tested. Which “Effect on Harvest Titer” value [1, 5] did it give?
A: Decrease

Q: And the “Effect on Peak VCD” value [2, 5]?
A: No change

Q: What does the source list for `NCCO` [Ethanolamine]?
A: Effect on Harvest Titer [1, 5]: Decrease; Effect on Peak VCD [2, 5]: Increase
